Source: paper PMC11270923 (BMC Chemistry, 2024)

Columns and labels:
[1] = Thermodynamic dissolution properties from Van't Hoff and Gibbs equations; type: physicochemical
From the text: The Gibbs and […] equations were used to determine the thermodynamic parameters of dissolution. A mean harmonic temperature of 305.55 K was utilized for the calculations, which were based on a temperature range of 298.15 K to 313.15 K [35]. […] On the other hand, ΔHsolno can be calculated by plotting lnx1 versus 1/T-1/Thm which is called van’t Hoff plot:16 ΔHsolno=-R(∂lnx1/∂(1/T-1/Thm))P 17 ΔGsolno=-RThm×intercept
By solving Eqs. 16 and 17, we can determine the values of the parameters ΔHsolno and ΔGsolno . The standard molar entropy of dissolution, ΔSsolno , can then be calculated using the following equation [40–42]:18 ΔSsolno=ΔHsolno-ΔGsolno/Thm
The relative contributions of entropy and enthalpy to the standard molar Gibbs free energy of dissolution of ACP are explained by Eqs. 17, 18, as shown by the symbols ξH and ξTS , respectively:19 %ξH=ΔHsolno/ΔHsolno+TΔSsolno×100 20 %ξTS=TΔSsolno/ΔHsolno+TΔSsolno×100

[2] = 298.15 K, methanol + water, 0.1 methanol weight fraction; cited from earlier work
[3] = water+[DEA]La w3=0.0000, mean temperature 305.55 K
[4] = water+[DEA]La w3=0.0200, mean temperature 305.55 K
[5] = water+[DEA]La w3=0.0500, mean temperature 305.55 K
[6] = water+[DEA]La w3=0.0700, mean temperature 305.55 K
[7] = water+[DEA]La w3=0.1000, mean temperature 305.55 K
[8] = water+[DEA]La w3=0.1500, mean temperature 305.55 K
[9] = water+[DEA]La w3=0.2000, mean temperature 305.55 K
[10] = water+[MEA]La w3=0.0000, mean temperature 305.55 K
[11] = water+[MEA]La w3=0.0200, mean temperature 305.55 K
[12] = water+[MEA]La w3=0.0500, mean temperature 305.55 K
[13] = water+[MEA]La w3=0.0700, mean temperature 305.55 K
[14] = water+[MEA]La w3=0.1000, mean temperature 305.55 K
[15] = water+[MEA]La w3=0.1500, mean temperature 305.55 K
[16] = water+[MEA]La w3=0.2000, mean temperature 305.55 K
[17] = water+[TEA]La w3=0.0000, mean temperature 305.55 K
[18] = water+[TEA]La w3=0.0200, mean temperature 305.55 K
[19] = water+[TEA]La w3=0.0500, mean temperature 305.55 K
[20] = water+[TEA]La w3=0.0700, mean temperature 305.55 K
[21] = water+[TEA]La w3=0.1000, mean temperature 305.55 K
[22] = water+[TEA]La w3=0.1500, mean temperature 305.55 K
[23] = water+[TEA]La w3=0.2000, mean temperature 305.55 K

## CC(=O)Nc1ccc(O)cc1 [ACP, Acetaminophen]
[1]; [3]
  TMΔHsoln∘: 9.576 kJ/mol
  ΔGsoln∘: 15.356 kJ/mol
  ΔHsoln∘: 24.933 kJ/mol
  ξH: 72.250%
  ξTS: 27.750%
[1]; [4]
  TMΔHsoln∘: 6.015 kJ/mol
  ΔGsoln∘: 14.598 kJ/mol
  ΔHsoln∘: 20.612 kJ/mol
  ξH: 77.411%
  ξTS: 22.589%
[1]; [5]
  TMΔHsoln∘: 0.450 kJ/mol
  ΔGsoln∘: 14.221 kJ/mol
  ΔHsoln∘: 14.671 kJ/mol
  ξH: 97.024%
  ξTS: 2.976%
[1]; [6]
  ΔGsoln∘: 14.021 kJ/mol
  ΔHsoln∘: 13.237 kJ/mol
  ξH: 94.407%
  ξTS: 5.593%
[1]; [7]
  TMΔHsoln∘: 2.841 kJ/mol
  ΔGsoln∘: 13.727 kJ/mol
  ΔHsoln∘: 16.569 kJ/mol
  ξH: 85.361%
  ξTS: 14.639%
[1]; [8]
  TMΔHsoln∘: 0.514 kJ/mol
  ΔGsoln∘: 13.528 kJ/mol
  ΔHsoln∘: 14.041 kJ/mol
  ξH: 96.472%
  ξTS: 3.528%
[1]; [9]
  TMΔHsoln∘: 1.260 kJ/mol
  ΔGsoln∘: 13.256 kJ/mol
  ΔHsoln∘: 14.515 kJ/mol
  ξH: 92.015%
  ξTS: 7.985%
[1]; [10]
  TMΔHsoln∘: 9.576 kJ/mol
  ΔGsoln∘: 15.356 kJ/mol
  ΔHsoln∘: 24.933 kJ/mol
  ξH: 72.250%
  ξTS: 27.750%
[1]; [11]
  TMΔHsoln∘: 4.888 kJ/mol
  ΔGsoln∘: 14.395 kJ/mol
  ΔHsoln∘: 19.284 kJ/mol
  ξH: 79.777%
  ξTS: 20.223%
[1]; [12]
  ΔGsoln∘: 14.122 kJ/mol
  ΔHsoln∘: 13.991 kJ/mol
  ξH: 99.076%
  ξTS: 0.924%
[1]; [13]
  ΔGsoln∘: 13.714 kJ/mol
  ΔHsoln∘: 12.336 kJ/mol
  ξH: 89.953%
  ξTS: 10.047%
[1]; [14]
  ΔGsoln∘: 13.447 kJ/mol
  ΔHsoln∘: 13.299 kJ/mol
  ξH: 98.898%
  ξTS: 1.102%
[1]; [15]
  TMΔHsoln∘: 1.931 kJ/mol
  ΔGsoln∘: 13.074 kJ/mol
  ΔHsoln∘: 15.005 kJ/mol
  ξH: 88.600%
  ξTS: 11.400%
[1]; [16]
  TMΔHsoln∘: 1.225 kJ/mol
  ΔGsoln∘: 12.831 kJ/mol
  ΔHsoln∘: 14.056 kJ/mol
  ξH: 91.982%
  ξTS: 8.018%
[1]; [17]
  TMΔHsoln∘: 9.576 kJ/mol
  ΔGsoln∘: 15.356 kJ/mol
  ΔHsoln∘: 24.933 kJ/mol
  ξH: 72.250%
  ξTS: 27.750%
[1]; [18]
  TMΔHsoln∘: 6.937 kJ/mol
  ΔGsoln∘: 14.994 kJ/mol
  ΔHsoln∘: 21.931 kJ/mol
  ξH: 75.970%
  ξTS: 24.030%
[1]; [19]
  TMΔHsoln∘: 0.819 kJ/mol
  ΔGsoln∘: 14.716 kJ/mol
  ΔHsoln∘: 15.535 kJ/mol
  ξH: 94.992%
  ξTS: 5.008%
[1]; [20]
  TMΔHsoln∘: 0.198 kJ/mol
  ΔGsoln∘: 14.402 kJ/mol
  ΔHsoln∘: 14.600 kJ/mol
  ξH: 98.659%
  ξTS: 1.341%
[1]; [21]
  TMΔHsoln∘: 3.253 kJ/mol
  ΔGsoln∘: 14.131 kJ/mol
  ΔHsoln∘: 17.384 kJ/mol
  ξH: 84.235%
  ξTS: 15.765%
[1]; [22]
  TMΔHsoln∘: 1.400 kJ/mol
  ΔGsoln∘: 13.713 kJ/mol
  ΔHsoln∘: 15.113 kJ/mol
  ξH: 91.522%
  ξTS: 8.478%
[1]; [23]
  TMΔHsoln∘: 1.793 kJ/mol
  ΔGsoln∘: 13.449 kJ/mol
  ΔHsoln∘: 15.242 kJ/mol
  ξH: 89.476%
  ξTS: 10.524%
[2]
  ACP solubility: 2.65 × 10^–3 mole fraction
